Measured values as given in patent publication US9296725B2, “Heterocyclyl pyrimidine analogues as TYK2 inhibitors” (Cellzome Limited, priority 2012, dated 2016).

Columns and labels:
TYK2 = biological target: T1, TYK2 (Homo sapiens, UniProt P29597); assay: Kinobeads assay, TYK2 (competition binding in mixed Molt4/Ramos cell lysate, dot blot detection); conditions: Kinobeads assay, Molt4/Ramos lysate; read-out: TYK2 Band (Kinobeads assay potency, IC50)
T1 construct: endogenous in cells; host or cells: Molt4 (ATCC CRL-1582) and Ramos (ATCC CRL-1596), mixed lysate 1:2
T1 sequence (P29597 whole entry): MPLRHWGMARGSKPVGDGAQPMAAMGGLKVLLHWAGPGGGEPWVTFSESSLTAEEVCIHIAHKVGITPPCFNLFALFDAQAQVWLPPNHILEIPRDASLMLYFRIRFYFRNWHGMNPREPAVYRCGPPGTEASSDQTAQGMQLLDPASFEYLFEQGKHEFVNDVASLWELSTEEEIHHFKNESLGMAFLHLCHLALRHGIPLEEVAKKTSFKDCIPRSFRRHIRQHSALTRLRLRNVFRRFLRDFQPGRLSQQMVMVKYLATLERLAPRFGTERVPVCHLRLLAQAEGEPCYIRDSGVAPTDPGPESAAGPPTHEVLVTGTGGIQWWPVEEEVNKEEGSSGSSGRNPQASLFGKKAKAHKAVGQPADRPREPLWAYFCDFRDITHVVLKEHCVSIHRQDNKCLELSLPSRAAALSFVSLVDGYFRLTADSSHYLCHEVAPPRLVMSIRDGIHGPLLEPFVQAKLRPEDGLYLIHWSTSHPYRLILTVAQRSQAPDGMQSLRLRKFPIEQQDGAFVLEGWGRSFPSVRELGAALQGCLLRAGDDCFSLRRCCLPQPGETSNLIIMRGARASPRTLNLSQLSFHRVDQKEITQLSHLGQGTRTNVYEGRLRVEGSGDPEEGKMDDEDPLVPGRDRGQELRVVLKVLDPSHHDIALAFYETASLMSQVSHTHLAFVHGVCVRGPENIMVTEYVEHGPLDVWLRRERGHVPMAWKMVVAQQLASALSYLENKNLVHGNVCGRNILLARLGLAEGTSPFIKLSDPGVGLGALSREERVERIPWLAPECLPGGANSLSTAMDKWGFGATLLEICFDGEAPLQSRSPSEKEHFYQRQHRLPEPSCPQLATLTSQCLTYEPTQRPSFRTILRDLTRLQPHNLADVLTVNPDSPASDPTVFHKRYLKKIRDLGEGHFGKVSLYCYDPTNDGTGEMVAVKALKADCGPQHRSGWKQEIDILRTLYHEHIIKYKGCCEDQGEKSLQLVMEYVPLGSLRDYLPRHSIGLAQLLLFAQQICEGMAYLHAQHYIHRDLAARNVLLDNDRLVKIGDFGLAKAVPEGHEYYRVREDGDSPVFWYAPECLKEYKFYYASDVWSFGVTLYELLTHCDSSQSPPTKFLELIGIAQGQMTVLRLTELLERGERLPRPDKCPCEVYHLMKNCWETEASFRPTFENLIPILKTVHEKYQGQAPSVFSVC
Description: (§1) The compounds of the present invention as described in the previous examples were tested in a Kinobeads™ assay as described for ZAP-70 (WO-A 2007/137867). Briefly, test compounds (at various concentrations) and the affinity matrix with the immobilized aminopyrido-pyrimidine ligand 24 were added to cell lysate aliquots and allowed to bind to the proteins in 10 the lysate sample. After the incubation time the beads with captured proteins were separated from the lysate. Bound proteins were then eluted and the presence of TYK2 and JAK2 was detected and quantified using specific antibodies in a dot blot procedure and the Odyssey infrared detection system. Dose response curves for individual kinases were generated and IC50 values calculated. Kinobeads™ assays have been previously described (WO-A 2007/137867; WO-A 2006/134056).
(§2) The affinity matrix was washed two times with 15 mL of 1×DP buffer containing 0.2% NP40 (IGEPAL® CA-630, Sigma, #13021) and then resuspended in 1×DP buffer containing 0.2% NP40 (3% beads slurry). 5×DP buffer: 250 mM Tris-HCl pH 7.4, 25% Glycerol, 7.5 mM MgCl2, 750 mM NaCl, 5 mM Na3VO4; filter the 5×DP buffer through a 0.22 μm filter and store in aliquots at −80° C. The 5×DP buffer is diluted with H2O to 1×DP buffer containing 1 mM DTT and 25 mM NaF.
(§3) Stock solutions of test compounds were prepared in DMSO. In a 96 well plate 30 μL solution of diluted test compounds at 5 mM in DMSO were prepared. Starting with this solution a 1:3 dilution series (9 steps) was prepared. For control experiments (no test compound) a buffer containing 2% DMSO was used.
(§4) Molt4 cells (ATCC catalogue number CRL-1582) and Ramos cells (ATCC catalogue number CRL-1596) were grown in 1 L Spinner flasks (Integra Biosciences, #182101) in suspension in RPMI 1640 medium (Invitrogen, #21875-034) supplemented with 10% Fetal Bovine Serum (Invitrogen) at a density between 0.15×10^6 and 1.2×10^6 cells/mL. Cells were harvested by centrifugation, washed once with 1×PBS buffer (Invitrogen, #14190-094) and cell pellets were frozen in liquid nitrogen and subsequently stored at −80° C. Cells were homogenized in a Potter S homogenizer in lysis buffer: 50 mM Tris-HCl, 0.8% NP40, 5% glycerol, 150 mM NaCl, 1.5 mM MgCl2, 25 mM NaF, 1 mM sodium vanadate, 1 mM DTT, pH 7.5. One complete EDTA-free tablet (protease inhibitor cocktail, Roche Diagnostics, 1873580) per 25 mL buffer was added. The material was dounced 10 times using a mechanized POTTER S, transferred to 50 mL falcon tubes, incubated for 30 minutes on ice and spun down for 10 minutes at 20,000 g at 4° C. (10,000 rpm in Sorvall SLA600, precooled). The supernatant was transferred to an ultracentrifuge (UZ)-polycarbonate tube (Beckmann, 355654) and spun for 1 hour at 100.000 g at 4° C. (33.500 rpm in Ti50.2, precooled). The supernatant was transferred again to a fresh 50 mL falcon tube, the protein concentration was determined by a Bradford assay (BioRad) and samples containing 50 mg of protein per aliquot were prepared. The samples were immediately used for experiments or frozen in liquid nitrogen and stored frozen at −80° C.
(§5) Cell lysate (approximately 50 mg protein per plate) was thawed in a water bath at room temperature and then stored on ice. To the thawed cell lysate 1×DP 0.8% NP40 buffer containing protease inhibitors (1 tablet for 25 mL buffer; EDTA-free protease inhibitor cocktail; Roche Diagnostics 1873580) was added in order to reach a final protein concentration of 10 mg/mL total protein. The diluted cell lysate was stored on ice. Mixed Molt4/Ramos lysate was prepared by combining one volume of Molt4 lysate and two volumes of Ramos lysate (ratio 1:2).
(§6) To a 96 well filter plate (Multiscreen HTS, BV Filter Plates, Millipore #MSBVN1250) were added per well: 100 μL affinity matrix (3% beads slurry), 3 μL of compound solution, and 50 μL of diluted lysate. Plates were sealed and incubated for 3 hours in a cold room on a plate shaker (Heidolph tiramax 1000) at 750 rpm. […]

JAK2 = biological target: T2, JAK2 (Homo sapiens, UniProt O60674); assay: Kinobeads assay, JAK2 (competition binding in mixed Molt4/Ramos cell lysate, dot blot detection); conditions: read-out: JAK2 Band (Kinobeads assay potency, IC50)
T2 construct: endogenous in cells; host or cells: Molt4 (ATCC CRL-1582) and Ramos (ATCC CRL-1596), mixed lysate 1:2
T2 sequence (O60674 whole entry): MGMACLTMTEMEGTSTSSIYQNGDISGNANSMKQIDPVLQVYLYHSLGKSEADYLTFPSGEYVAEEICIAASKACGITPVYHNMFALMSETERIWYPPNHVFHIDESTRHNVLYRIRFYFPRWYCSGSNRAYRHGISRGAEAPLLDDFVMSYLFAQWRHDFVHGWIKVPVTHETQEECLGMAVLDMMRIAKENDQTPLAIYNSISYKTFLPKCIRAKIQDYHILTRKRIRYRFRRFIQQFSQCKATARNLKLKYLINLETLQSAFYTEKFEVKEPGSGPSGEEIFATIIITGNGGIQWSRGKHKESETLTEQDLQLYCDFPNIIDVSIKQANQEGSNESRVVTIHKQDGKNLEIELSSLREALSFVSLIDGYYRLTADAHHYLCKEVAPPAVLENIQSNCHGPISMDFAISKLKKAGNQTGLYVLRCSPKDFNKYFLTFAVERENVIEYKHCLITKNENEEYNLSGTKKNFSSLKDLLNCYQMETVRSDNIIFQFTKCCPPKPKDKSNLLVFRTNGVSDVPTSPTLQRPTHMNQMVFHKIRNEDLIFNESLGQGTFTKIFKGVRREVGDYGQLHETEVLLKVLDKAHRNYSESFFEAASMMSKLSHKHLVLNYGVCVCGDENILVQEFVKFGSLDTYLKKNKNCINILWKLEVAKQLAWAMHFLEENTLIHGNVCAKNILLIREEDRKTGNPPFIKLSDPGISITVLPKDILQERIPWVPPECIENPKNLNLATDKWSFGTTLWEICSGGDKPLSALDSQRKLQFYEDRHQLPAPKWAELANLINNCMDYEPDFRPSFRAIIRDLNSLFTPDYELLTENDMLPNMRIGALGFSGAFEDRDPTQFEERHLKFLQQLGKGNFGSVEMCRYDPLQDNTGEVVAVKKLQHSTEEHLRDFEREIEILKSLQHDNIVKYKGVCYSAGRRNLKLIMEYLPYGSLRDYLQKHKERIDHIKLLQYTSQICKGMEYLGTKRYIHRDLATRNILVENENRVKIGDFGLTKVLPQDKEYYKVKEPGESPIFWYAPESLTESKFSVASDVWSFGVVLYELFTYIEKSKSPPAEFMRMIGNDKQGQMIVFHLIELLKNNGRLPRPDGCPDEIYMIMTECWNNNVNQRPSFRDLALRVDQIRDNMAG
Description: as §1, §2, §3, §4, §5, §6

SMILES	IC50 (TYK2) [µM]	IC50 (JAK2) [µM]
COc1cc(F)c(CNc2nc(Nc3cnn(CC(=O)NC(C)C)c3)ncc2F)c(F)c1 [Example I-70]	0.01 to 0.1	> 10
CNC(=O)Cn1cc(Nc2ncc(Cl)c(NCc3ccccc3S(=O)(=O)N(C)C)n2)cn1 [Example I-356]	0.1 to 1	0.1 to 1
CC(C)NC(=O)Cn1cc(Nc2nccc(NCc3c(F)cc(C#N)cc3F)n2)cn1 [Example I-1, 2-(4-((4-((4-cyano-2,6-difluorobenzyl)amino)pyrimidin-2-yl)amino)-1H-pyrazol-1-yl)-N-isopropylacetamide]	0.01 to 0.1	1 to 10
CS(=O)(=O)NCc1cccc(CNc2nc(Nc3cnn(CC(=O)N4CCC[C@H]4C#N)c3)ncc2Cl)c1 [Example I-400]	0.1 to 1	1 to 10
Cn1cc(Nc2nccc(NCc3c(Cl)ccc(F)c3F)n2)cn1 [Example I-68]	0.01 to 0.1	0.1 to 1
CN(C)C(=O)Cn1cc(Nc2ncc(F)c(NCc3cccc(OC(F)F)c3)n2)cn1 [Example I-14]	0.01 to 0.1	1 to 10
OCCn1cc(Nc2ncc(Cl)c(NCc3ncccc3F)n2)cn1 [Example I-259]	0.01 to 0.1	1 to 10
O=C(Cn1cc(Nc2ncc(Cl)c(NCc3c(F)ccc(F)c3F)n2)cn1)NC1CC1 [Example I-335]	≤ 0.01	0.1 to 1
CC(C#N)NC(=O)Cn1cc(Nc2nccc(NCc3c(F)cc(F)cc3F)n2)cn1 (stereo not shown) [Example I-5, N-(1-cyanoethyl)-2-(4-((4-((2,4,6-trifluorobenzyl)amino)pyrimidin-2-yl)amino)-1H-pyrazol-1-yl)acetamide]	0.01 to 0.1	> 10
CS(=O)(=O)CCn1cc(Nc2ncc(Cl)c(NCc3ccccc3)n2)cn1 [Example I-289]	1 to 10	1 to 10
CNC(=O)Cn1cc(Nc2ncc(F)c(NCc3c(F)ccc(F)c3F)n2)cn1 [Example I-410]	0.01 to 0.1	1 to 10
CC(C)(C)NC(=O)Cn1cc(Nc2ncc(F)c(NCc3c(F)cc(F)cc3F)n2)cn1 [Example I-429]	0.01 to 0.1	1 to 10
CCNC(=O)c1cccc(CNc2nc(Nc3cnn(CCO)c3)ncc2Cl)c1 [Example I-241]	0.1 to 1	1 to 10
COc1ccc(F)c(CNc2nc(Nc3cnn(C)c3)ncc2Cl)c1F [Example I-319]	0.01 to 0.1	1 to 10
COc1ccc(S(C)(=O)=O)cc1CNc1nc(Nc2cnn(C)c2)ncc1Cl [Example I-449]	0.01 to 0.1	0.1 to 1
COc1ccc(F)c(CNc2nc(Nc3cnn(CC(N)=O)c3)ncc2F)c1F [Example I-384]	0.01 to 0.1	1 to 10
COc1cc(F)c(CNc2ccnc(Nc3cnn(CC(=O)NC(C)C)c3)n2)c(F)c1 [Example I-64]	0.01 to 0.1	> 10
CNC(=O)Cn1cc(Nc2ncc(F)c(NCc3c(Cl)cccc3Cl)n2)cn1 [Example I-329]	0.01 to 0.1	1 to 10
COc1cccc(CNc2nc(Nc3cnn(CC(=O)N(C)C)c3)ncc2Cl)c1 [Example I-244]	0.1 to 1	1 to 10
CN(C)CCNC(=O)Cn1cc(Nc2ncc(Cl)c(NCc3cccc(OCC#N)c3)n2)cn1 [Example I-367]	0.1 to 1	1 to 10
OCCn1cc(Nc2ncc(Cl)c(NCc3ccc(C(F)(F)F)cc3F)n2)cn1 [Example I-245]	1 to 10	0.01 to 0.1
Clc1cnc(Nc2cn[nH]c2)nc1NCc1ccccc1 [Example I-201]	0.1 to 1	1 to 10
O=C(Cn1cc(Nc2ncc(Cl)c(NCc3ccccc3)n2)cn1)N1CC2(COC2)C1 [Example I-236]	0.1 to 1	1 to 10
